Test results published in ChEMBL document CHEMBL1201862, “PubChem BioAssay data set” (2004).
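Where inhibition never reached the appropriate level, the endpoint shown equals the highest concentration tested. Otherwise, values were interpolated linearly from a five-concentration, 48-hour dose response in 96-well plates. GI50: concentration for 50% inhibition of growth.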 Activity calls are given as the source filed them. No stated cut-off is given here; in the data, active = GI50 up to about 1.1 µM and inactive = higher.

Key:
Test in all cases: NCI anticancer screen, dose series, 48 h
RPMI-8226 = system: RPMI-8226
TK-10 = system: TK-10
T47D = system: T47D
SW-620 = system: SW-620
M14 = system: M14
OVCAR-4 = system: OVCAR-4
UACC-62 = system: UACC-62
HCC 2998 = system: HCC 2998
HL-60 = system: HL-60
IGROV-1 = system: IGROV-1
EKVX = system: EKVX
CCRF-CEM = system: CCRF-CEM
OVCAR-5 = system: OVCAR-5
MDA-MB-231 = system: MDA-MB-231
MDA-N = system: MDA-N
SNB-19 = system: SNB-19
UACC-257 = system: UACC-257
MDA-MB-435 = system: MDA-MB-435
U-251 = system: U-251
SF-295 = system: SF-295

Compound	GI50 (RPMI-8226)	GI50 (TK-10)	GI50 (T47D)	GI50 (SW-620)	GI50 (M14)	GI50 (OVCAR-4)	GI50 (UACC-62)	GI50 (HCC 2998)	GI50 (HL-60)	GI50 (IGROV-1)	GI50 (EKVX)	GI50 (CCRF-CEM)	GI50 (OVCAR-5)	GI50 (MDA-MB-231)	GI50 (MDA-N)	GI50 (SNB-19)	GI50 (UACC-257)	GI50 (MDA-MB-435)	GI50 (U-251)	GI50 (SF-295)
CN(C)/C=C/c1c2c(nc3ccccc13)C(=O)c1cccnc1C2=O	1.89 µM (inactive)	1.4 µM (inactive)	3.97 µM (inactive)	0.244 µM (active)	0.218 µM (active)	0.351 µM (active)	0.541 µM (active)	1.28 µM (inactive)	0.299 µM (active)	1.42 µM (inactive)	2.25 µM (inactive)	1.84 µM (inactive)	1.45 µM (inactive)	0.867 µM (active)	0.54 µM (active)	0.562 µM (active)	0.668 µM (active)	0.548 µM (active)	0.353 µM (active)	0.57 µM (active)
COC(=O)C1Cc2ccc(O)c(O)c2CN1 (stereo not given)	24.2 µM (inactive)	> 100 µM (inactive)	71.9 µM (inactive)	21.3 µM (inactive)	16.2 µM (inactive)	19.3 µM (inactive)	19.7 µM (inactive)	> 100 µM (inactive)	25.8 µM (inactive)	35.8 µM (inactive)	> 100 µM (inactive)	35 µM (inactive)	27.5 µM (inactive)	19.8 µM (inactive)	16.4 µM (inactive)	38.3 µM (inactive)	15.5 µM (inactive)	16.7 µM (inactive)	17.4 µM (inactive)	7.41 µM (inactive)
O=C1C=CC(=O)C(CNc2ccc(C(=O)OCc3ccccc3)cc2)=C1	1.47 µM (inactive)	4.62 µM (inactive)	1.77 µM (inactive)	4.99 µM (inactive)	7.05 µM (inactive)	3.81 µM (inactive)	8.97 µM (inactive)	16 µM (inactive)	1.08 µM (active)	3.27 µM (inactive)	10.4 µM (inactive)	0.661 µM (active)	15.6 µM (inactive)	7.82 µM (inactive)	6.85 µM (inactive)	13.4 µM (inactive)	11.5 µM (inactive)	5.06 µM (inactive)	6.24 µM (inactive)	17.7 µM (inactive)
O=C(O)c1cc2c(cc1CC(Cc1ccc3c(c1)CCCC3)C(=O)O)CCCC2 (stereo not given)	63.2 µM (inactive)	> 100 µM (inactive)	88.1 µM (inactive)	> 100 µM (inactive)	> 100 µM (inactive)	< 0.01 µM (active)	> 100 µM (inactive)	32.9 µM (inactive)	99.8 µM (inactive)	> 100 µM (inactive)	56 µM (inactive)	67.5 µM (inactive)	> 100 µM (inactive)	> 100 µM (inactive)	> 100 µM (inactive)	60 µM (inactive)	44.6 µM (inactive)	> 100 µM (inactive)	> 100 µM (inactive)	> 100 µM (inactive)
Cc1ccc(CC(Cc2ccc(C)cc2C(=O)O)C(=O)O)cc1 (stereo not given)	> 100 µM (inactive)	> 100 µM (inactive)	> 100 µM (inactive)	> 100 µM (inactive)	> 100 µM (inactive)	> 100 µM (inactive)	43 µM (inactive)	> 100 µM (inactive)	> 100 µM (inactive)	> 100 µM (inactive)	> 100 µM (inactive)	> 100 µM (inactive)	> 100 µM (inactive)	> 100 µM (inactive)	> 100 µM (inactive)	> 100 µM (inactive)	> 100 µM (inactive)	> 100 µM (inactive)	> 100 µM (inactive)	> 100 µM (inactive)
CC(=O)Nc1ccc(C(=O)NN2C(=O)CSC2c2ccc(O)cc2)cc1 (stereo not given)	> 100 µM (inactive)	> 100 µM (inactive)	> 100 µM (inactive)	> 100 µM (inactive)	> 100 µM (inactive)	> 100 µM (inactive)	> 100 µM (inactive)	> 100 µM (inactive)	> 100 µM (inactive)	> 100 µM (inactive)	> 100 µM (inactive)	> 100 µM (inactive)	> 100 µM (inactive)	> 100 µM (inactive)	> 100 µM (inactive)	> 100 µM (inactive)	> 100 µM (inactive)	> 100 µM (inactive)	> 100 µM (inactive)	> 100 µM (inactive)
COc1ccc(C(C#N)NC23CC4CC(CC(C4)C2)C3)cc1OC (stereo not given)	> 100 µM (inactive)	> 100 µM (inactive)	> 100 µM (inactive)	> 100 µM (inactive)	> 100 µM (inactive)	> 100 µM (inactive)	> 100 µM (inactive)	> 100 µM (inactive)	> 100 µM (inactive)	> 100 µM (inactive)	> 100 µM (inactive)	> 100 µM (inactive)	> 100 µM (inactive)	> 100 µM (inactive)	> 100 µM (inactive)	> 100 µM (inactive)	> 100 µM (inactive)	> 100 µM (inactive)	> 100 µM (inactive)	> 100 µM (inactive)
